Source: the NIST ThermoML archive (doi:10.1021/je0502804)
Numbers after ± are expanded uncertainties.

Details: Crystal; visual observation

| SMILES | Normal melting temperature [°C] |
| --- | --- |
| Clc1nc(Cl)c(Cl)c(Cl)c1Cl [pentachloropyridine] | 124.00 ± 0.5 |
| Clc1cc(Cl)c(Cl)nc1Cl [2,3,5,6-tetrachloropyridine] | 90.00 ± 0.5 |
